# Reference: paper PMC9215129, “An acetyltransferase controls the metabolic flux in rubromycin polyketide biosynthesis by direct modulation of redox tailoring enzymes” (Chemical Science, 2022)
# How the values were obtained:
# GrhO6 [1] = target: T1, GrhO6 (Streptomyces sp. JP95, UniProt Q8KSX5, K57M); experiment: HPLC assay, 5a/5b formation; format: biochemical; conditions: with HyalJ; activity similar to wild type; substrate not named explicitly for the variant
# T1 construct: recombinant, purified; group A FAD monooxygenase; acetylated at K5 by HyalJ in some assays
# T1 sequence (Q8KSX5 entry or part of it K57M): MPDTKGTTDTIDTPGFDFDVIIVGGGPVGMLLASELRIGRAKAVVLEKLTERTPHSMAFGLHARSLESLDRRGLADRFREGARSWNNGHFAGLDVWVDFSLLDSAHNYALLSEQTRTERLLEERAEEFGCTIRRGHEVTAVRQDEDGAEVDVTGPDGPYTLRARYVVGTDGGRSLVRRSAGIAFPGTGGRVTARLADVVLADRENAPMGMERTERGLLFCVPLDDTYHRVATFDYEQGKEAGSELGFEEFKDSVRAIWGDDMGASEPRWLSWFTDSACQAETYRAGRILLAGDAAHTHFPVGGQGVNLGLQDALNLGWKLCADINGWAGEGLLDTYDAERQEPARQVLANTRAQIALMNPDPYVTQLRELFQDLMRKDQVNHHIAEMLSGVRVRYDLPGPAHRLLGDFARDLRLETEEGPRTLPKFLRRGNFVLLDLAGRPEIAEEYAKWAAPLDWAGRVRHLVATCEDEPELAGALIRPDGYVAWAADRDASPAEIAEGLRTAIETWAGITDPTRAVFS
# GrhO10 [2] = target: T2, GrhO10 (Streptomyces sp. JP95, UniProt Q8KSW1); experiment: HPLC, UPLC-HRMS/MS of product […]; format: biochemical; conditions: 4a/4b generated in situ by cascade (GrhO5, GrhO1, NADPH); redox form not resolved; low turnover
# T2 construct: recombinant from E. coli, Ni-NTA purified (His-tag)
# T2 sequence (Q8KSW1 1-249): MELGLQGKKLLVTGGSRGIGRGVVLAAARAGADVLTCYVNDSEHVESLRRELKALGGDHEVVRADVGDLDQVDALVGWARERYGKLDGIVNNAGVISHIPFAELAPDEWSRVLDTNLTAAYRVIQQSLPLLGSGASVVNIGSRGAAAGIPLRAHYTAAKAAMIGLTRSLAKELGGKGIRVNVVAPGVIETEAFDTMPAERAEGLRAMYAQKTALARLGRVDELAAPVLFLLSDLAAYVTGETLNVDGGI
# GrhO6 [3] = target: T3, GrhO6 (Streptomyces sp. JP95, UniProt Q8KSX5); experiment: HPLC time course in cascade; format: biochemical; conditions: NADPH, GrhO5, GrhO1, with HyalJ; 4a generated in situ from 3b
# T3 construct: recombinant, purified; group A FAD monooxygenase; acetylated at K5 by HyalJ in some assays
# T3 sequence (Q8KSX5 1-520): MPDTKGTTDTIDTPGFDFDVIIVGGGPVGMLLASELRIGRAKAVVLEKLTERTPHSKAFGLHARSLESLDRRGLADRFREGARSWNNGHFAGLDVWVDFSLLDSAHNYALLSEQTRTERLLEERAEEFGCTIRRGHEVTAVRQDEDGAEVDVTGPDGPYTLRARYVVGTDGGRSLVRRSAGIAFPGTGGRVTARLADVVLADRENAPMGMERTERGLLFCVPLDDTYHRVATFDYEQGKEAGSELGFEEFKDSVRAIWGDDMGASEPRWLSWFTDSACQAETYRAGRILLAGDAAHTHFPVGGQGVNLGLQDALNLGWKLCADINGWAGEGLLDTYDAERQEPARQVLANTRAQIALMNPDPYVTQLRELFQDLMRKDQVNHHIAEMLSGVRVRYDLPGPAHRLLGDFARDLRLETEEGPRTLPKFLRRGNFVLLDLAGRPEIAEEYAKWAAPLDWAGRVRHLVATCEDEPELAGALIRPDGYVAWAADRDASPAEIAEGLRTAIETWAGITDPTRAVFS
# GrhO6 [4] = target: T4, GrhO6 (Streptomyces sp. JP95, UniProt Q8KSX5, K425M); experiment: HPLC assay, 5a/5b formation; format: biochemical; conditions: with HyalJ; activity similar to wild type; substrate not named explicitly for the variant
# T4 construct: recombinant, purified; group A FAD monooxygenase; acetylated at K5 by HyalJ in some assays
# T4 sequence (Q8KSX5 entry or part of it K425M): as the sequence (Q8KSX5 entry or part of it K57M) above, with M57K, K425M counted along it
# GrhO6 [5] = target: T3, GrhO6; experiment: turnover before digest and UPLC-HRMS; format: biochemical; conditions: with AcCoA and HyalJ
# HyalO10 = target: T5, HyalO10 (Streptomyces hyaluromycini, UniProt Z9NP16K308); experiment: HPLC coupled cascade assay, 6a/6b formation; format: biochemical; conditions: 5a/5b generated in situ (GrhO5, GrhO1, GrhO6, HyalJ, NADPH); redox form not resolved
# T5 construct: heterologously produced and purified; hyaluromycin gene cluster, homologue of GrhO10
# T5 sequence (Z9NP16K308 1-249): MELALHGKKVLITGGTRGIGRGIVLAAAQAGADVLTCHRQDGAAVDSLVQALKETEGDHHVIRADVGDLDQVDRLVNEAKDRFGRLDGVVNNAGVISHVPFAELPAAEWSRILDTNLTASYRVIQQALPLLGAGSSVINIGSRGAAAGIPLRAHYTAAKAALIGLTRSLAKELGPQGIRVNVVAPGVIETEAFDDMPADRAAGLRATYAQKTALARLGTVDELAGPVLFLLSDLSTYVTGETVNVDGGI
# GrhO10 [6] = target: T2, GrhO10; experiment: HPLC time course of 6b formation; format: biochemical; conditions: isolated 5b
# HyalJ = target: T6, HyalJ (Streptomyces hyaluromycini, UniProt Z9LXF2D8B5); experiment: co-purification from E. coli, UPLC-HRMS of released ligand; format: binding; conditions: acyl donor
# T6 construct: recombinant from E. coli, N-terminal GB1 solubility tag; GNAT, homologue of GrhJ
# T6 sequence (Z9LXF2D8B5 1-325): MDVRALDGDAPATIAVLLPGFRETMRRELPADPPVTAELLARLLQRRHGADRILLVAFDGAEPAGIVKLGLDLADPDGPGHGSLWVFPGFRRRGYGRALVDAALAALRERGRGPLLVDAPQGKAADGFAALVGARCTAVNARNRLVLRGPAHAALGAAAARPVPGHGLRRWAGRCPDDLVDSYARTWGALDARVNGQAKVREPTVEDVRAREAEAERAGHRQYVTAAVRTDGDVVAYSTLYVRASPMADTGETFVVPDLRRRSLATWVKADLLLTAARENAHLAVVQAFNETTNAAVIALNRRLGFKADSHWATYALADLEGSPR
# GrhO6 [7] = target: T3, GrhO6; experiment: HPLC enzyme assay; format: biochemical; conditions: inhibitor of turnover of 4a(b); 8 produced in situ, its structure only inferred from MS
# [8] = equal effect to AcCoA with apo HyalJ
structure (smiles),measurement,setting,value
"COc1cc(O)c2c(O)c3c(c(O)c2c1O)C(=O)OC1(CCc2cc4cc(C)oc(=O)c4c(O)c2O1)C3=O (centres unmarked) [4a, dihydrolenticulone]","HPLC assay, 5a/5b formation",GrhO6 [1],both were able to mediate the generation of 5a/5b in the presence of HyalJ
same,"HPLC, UPLC-HRMS/MS of product 8",GrhO10 [2],ketoreductases are also capable of catalyzing keto reduction of 4a/4b
same,HPLC time course in cascade,GrhO6 [3],Compound 4a is then further converted into 5a/5b
same,"HPLC assay, 5a/5b formation",GrhO6 [4],both were able to mediate the generation of 5a/5b in the presence of HyalJ
"COC1=CC(=O)c2c(O)c3c(c(O)c2C1=O)C(=O)OC1(CCc2cc4cc(C)oc(=O)c4c(O)c2O1)C3=O (centres unmarked) [4b, lenticulone]",turnover before digest and UPLC-HRMS,GrhO6 [5],GrhO6 after turnover of 4b in the presence of AcCoA and HyalJ
"COc1cc(O)c2c(O)c3c(c(O)c2c1O)OC1(CCc2cc4cc(C)oc(=O)c4c(O)c2O1)C3=O (centres unmarked) [5a, dihydro-7,8-dideoxy-6-oxo-griseorhodin C]","HPLC coupled cascade assay, 6a/6b formation",HyalO10,"When GrhO10 was substituted for HyalO10 in the enzymatic assays, 6a/6b was formed"
"COC1=CC(=O)c2c(O)c3c(c(O)c2C1=O)OC1(CCc2cc4cc(C)oc(=O)c4c(O)c2O1)C3=O (centres unmarked) [5b, 7,8-dideoxy-6-oxo-griseorhodin C]",HPLC time course of 6b formation,GrhO10 [6],the enzymatic formation of 6b was clearly observed in the presence of GrhO10
CC(=O)SCCNC(=O)CCNC(=O)[C@H](O)C(C)(C)COP(=O)(O)OP(=O)(O)OC[C@H]1O[C@@H](n2cnc3c(N)ncnc32)[C@H](O)[C@@H]1OP(=O)(O)O [acetyl-CoA],"co-purification from E. coli, UPLC-HRMS of released ligand","HyalJ; acetylates GrhO6 at K5, restores activity of apo HyalJ",which clearly confirmed the presence of AcCoA
"COc1cc(O)c2c(O)c3c(c(O)c2c1O)C(=O)OC1(CCc2cc4cc(C)oc(=O)c4c(O)c2O1)C3O (centres unmarked) [compound 8, 8]",HPLC enzyme assay,GrhO6 [7],GrhO6 showed strongly decreased activity on 4a(b) even in the presence of only small amounts
CC(C(=O)O)C(=O)SCCNC(=O)CCNC(=O)[C@H](O)C(C)(C)COP(=O)(O)OP(=O)(O)OC[C@H]1O[C@@H](n2cnc3c(N)ncnc32)[C@H](O)[C@@H]1OP(=O)(O)O (some centres unmarked) [methylmalonyl-CoA],"co-purification from E. coli, UPLC-HRMS of released ligand",HyalJ; [8],also with almost identical amounts of propionyl-CoA and methylmalonyl-CoA
CCC(=O)SCCNC(=O)CCNC(=O)[C@H](O)C(C)(C)COP(=O)(O)OP(=O)(O)OC[C@H]1O[C@@H](n2cnc3c(N)ncnc32)[C@H](O)[C@@H]1OP(=O)(O)O [propionyl-CoA],"co-purification from E. coli, UPLC-HRMS of released ligand",HyalJ; [8],also with almost identical amounts of propionyl-CoA and methylmalonyl-CoA
